Biological target: ATP-dependent translocase ABCB1 (Homo sapiens, UniProt P08183)
Experiment: TP_TRANSPORTER: inhibition of Hydroxydoxorubicin efflux in K562/Adr cells
Assay type: functional, cell-based

ATP-dependent translocase ABCB1, sequence (P08183 whole entry): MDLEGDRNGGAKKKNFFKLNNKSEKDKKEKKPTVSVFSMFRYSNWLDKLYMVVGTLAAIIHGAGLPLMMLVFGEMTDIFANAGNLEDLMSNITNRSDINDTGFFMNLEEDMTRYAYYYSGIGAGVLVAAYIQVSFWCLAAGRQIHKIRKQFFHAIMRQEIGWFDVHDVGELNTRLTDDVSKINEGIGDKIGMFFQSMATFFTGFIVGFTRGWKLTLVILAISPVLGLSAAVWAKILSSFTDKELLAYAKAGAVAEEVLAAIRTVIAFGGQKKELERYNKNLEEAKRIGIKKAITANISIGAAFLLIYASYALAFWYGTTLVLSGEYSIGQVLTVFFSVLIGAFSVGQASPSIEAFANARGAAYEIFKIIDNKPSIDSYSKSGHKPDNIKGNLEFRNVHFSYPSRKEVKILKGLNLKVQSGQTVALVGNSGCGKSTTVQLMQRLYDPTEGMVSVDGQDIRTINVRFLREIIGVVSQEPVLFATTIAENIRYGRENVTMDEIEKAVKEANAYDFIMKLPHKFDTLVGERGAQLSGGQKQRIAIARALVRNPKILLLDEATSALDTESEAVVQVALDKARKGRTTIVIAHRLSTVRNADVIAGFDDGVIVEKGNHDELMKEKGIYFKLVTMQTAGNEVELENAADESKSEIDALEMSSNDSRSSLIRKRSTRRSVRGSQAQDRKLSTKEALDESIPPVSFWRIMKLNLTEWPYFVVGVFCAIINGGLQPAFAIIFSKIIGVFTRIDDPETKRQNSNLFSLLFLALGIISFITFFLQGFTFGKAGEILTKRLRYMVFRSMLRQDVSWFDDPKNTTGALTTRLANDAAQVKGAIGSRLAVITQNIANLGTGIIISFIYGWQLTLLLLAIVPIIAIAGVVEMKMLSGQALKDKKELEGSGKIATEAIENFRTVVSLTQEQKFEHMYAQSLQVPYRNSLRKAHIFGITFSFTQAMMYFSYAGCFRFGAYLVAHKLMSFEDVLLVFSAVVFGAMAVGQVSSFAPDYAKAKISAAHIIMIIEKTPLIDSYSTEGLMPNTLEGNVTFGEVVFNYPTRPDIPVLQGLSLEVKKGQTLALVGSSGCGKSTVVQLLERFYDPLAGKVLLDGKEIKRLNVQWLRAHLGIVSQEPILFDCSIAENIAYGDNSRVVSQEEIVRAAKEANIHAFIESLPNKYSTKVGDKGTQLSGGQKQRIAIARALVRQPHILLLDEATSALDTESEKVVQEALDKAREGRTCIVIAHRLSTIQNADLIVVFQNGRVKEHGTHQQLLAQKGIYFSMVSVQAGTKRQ

Ki: 210 nM
Structure (SMILES): Cc1nc(C)c(P2(=O)O[C@H](C)C[C@@H](C)O2)c(-c2cccc([N+](=O)[O-])c2)c1C(=O)OCCN1CCN(C(c2ccccc2)c2ccccc2)CC1 (stereo partly specified)
